Results: patent US8637511B2, “Aminopyrimidines useful as kinase inhibitors” (Vertex Pharmaceuticals Incorporated, priority 2005, dated 2014)
pIC50, pKi: −log10 of the molar value. Where two headings read alike, the source gives them in different places.

Tests used:
JAK3 = target: T1, JAK3 (Homo sapiens, UniProt P52333); assay: biochemical
T1 sequence (P52333 1-1124): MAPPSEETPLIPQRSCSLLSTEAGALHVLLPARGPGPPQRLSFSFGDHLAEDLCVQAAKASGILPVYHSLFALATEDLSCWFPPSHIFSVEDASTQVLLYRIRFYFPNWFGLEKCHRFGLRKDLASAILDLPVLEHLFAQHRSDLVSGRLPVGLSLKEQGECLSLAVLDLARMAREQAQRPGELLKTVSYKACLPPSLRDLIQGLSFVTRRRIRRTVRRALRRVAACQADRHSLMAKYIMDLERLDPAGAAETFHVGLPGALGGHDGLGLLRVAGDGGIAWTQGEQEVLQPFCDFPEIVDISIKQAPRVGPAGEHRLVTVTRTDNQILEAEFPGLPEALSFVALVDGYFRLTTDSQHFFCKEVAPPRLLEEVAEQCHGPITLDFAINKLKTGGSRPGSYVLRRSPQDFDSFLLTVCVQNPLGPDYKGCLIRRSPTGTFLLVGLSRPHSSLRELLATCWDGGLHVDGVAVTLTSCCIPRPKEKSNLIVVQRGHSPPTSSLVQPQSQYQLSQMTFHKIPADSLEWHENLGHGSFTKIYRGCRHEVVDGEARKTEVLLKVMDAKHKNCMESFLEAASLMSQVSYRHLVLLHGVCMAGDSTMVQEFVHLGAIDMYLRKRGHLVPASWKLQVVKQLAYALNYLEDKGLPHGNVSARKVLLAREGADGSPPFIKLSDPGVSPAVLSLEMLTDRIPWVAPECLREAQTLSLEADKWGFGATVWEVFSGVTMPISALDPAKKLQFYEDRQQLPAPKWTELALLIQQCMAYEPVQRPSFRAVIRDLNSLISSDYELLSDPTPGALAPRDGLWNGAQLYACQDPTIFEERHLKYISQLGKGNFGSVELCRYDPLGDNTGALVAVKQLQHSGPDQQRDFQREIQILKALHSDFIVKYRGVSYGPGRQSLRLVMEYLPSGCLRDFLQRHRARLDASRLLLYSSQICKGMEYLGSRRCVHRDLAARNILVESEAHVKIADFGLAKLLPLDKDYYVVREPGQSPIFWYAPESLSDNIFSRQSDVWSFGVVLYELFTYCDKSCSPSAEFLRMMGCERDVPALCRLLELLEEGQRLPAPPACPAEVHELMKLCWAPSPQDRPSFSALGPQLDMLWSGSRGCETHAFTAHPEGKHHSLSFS

Aurora-1 (Aurora B) = Aurora-1 (Aurora B) (Homo sapiens, UniProt Q96GD4); assay: Aurora-1 (Aurora B) inhibition assay (radiometric); assay type: biochemical; settings: read-out: Aurora B kinase Ki value
Description: An assay buffer solution was prepared which consisted of 25 mM HEPES (pH 7.5), 10 mM MgCl2, 0.1% BSA and 10% glycerol. […] To 22 μL of the Aurora-B solution, in a 96-well plate, was added 2 μl of a compound stock solution in DMSO and the mixture allowed to equilibrate for 10 minutes at 25° C. The enzyme reaction was initiated by the addition of 16 μl stock [γ-^33P]-ATP solution (˜20 nCi/μL) prepared in assay buffer, to a final assay concentration of 800 μM. The reaction was stopped after 3 hours by the addition of 16 μL 500 mM phosphoric acid and the levels of ^33P incorporation into the peptide substrate were determined by the following method.
A phosphocellulose 96-well plate (Millipore, Cat no. MAPHNOB50) was pre-treated with 100 μL of a 100 mM phosphoric acid prior to the addition of the enzyme reaction mixture (40 μL). The solution was left to soak on to the phosphocellulose membrane for 30 minutes and the plate subsequently washed four times with 200 μL of a 100 mM phosphoric acid. […] Levels of non-enzyme catalyzed background radioactivity were determined by adding 16 μL of the 500 mM phosphoric acid to control wells, containing all assay components (which acts to denature the enzyme), prior to the addition of the [γ-^33P]-ATP solution. Levels of enzyme catalyzed. ^33P incorporation were calculated by subtracting mean background counts from those measured at each inhibitor concentration. […] Ki values were calculated from initial rate data by non-linear regression using the Prism software package (Prism 3.0, Graphpad Software, San Diego, Calif.).

Colo205 cells = assay: Analysis of cell proliferation and viability; assay type: cell-based; settings: Homo sapiens, COLO 205, Colo205 cells, read-out: IC50 value
Description: Colo205 cells were seeded in 96 well plates and serially diluted compound was added to the wells in duplicate. Control groups included untreated cells, the compound diluent (0.1% DMSO alone) and culture medium without cells.
To measure proliferation, 3 h prior to the end of the experiment 0.5 μCi of 3H thymidine was added to each well. Cells were then harvested and the incorporated radioactivity counted on a Wallac microplate beta-counter. Cell viability was assessed using Promega CellTiter 96AQ to measure MTS conversion. Dose response curves were calculated using either Prism 3.0 (GraphPad) or SoftMax Pro 4.3.1 LS (Molecular Devices) software.

FLT-3 = target: T2, FLT-3 (Homo sapiens, UniProt P36888); assay: FLT-3 inhibition assay, radiometric filter-binding; assay type: biochemical
T2 sequence (P36888 27-993): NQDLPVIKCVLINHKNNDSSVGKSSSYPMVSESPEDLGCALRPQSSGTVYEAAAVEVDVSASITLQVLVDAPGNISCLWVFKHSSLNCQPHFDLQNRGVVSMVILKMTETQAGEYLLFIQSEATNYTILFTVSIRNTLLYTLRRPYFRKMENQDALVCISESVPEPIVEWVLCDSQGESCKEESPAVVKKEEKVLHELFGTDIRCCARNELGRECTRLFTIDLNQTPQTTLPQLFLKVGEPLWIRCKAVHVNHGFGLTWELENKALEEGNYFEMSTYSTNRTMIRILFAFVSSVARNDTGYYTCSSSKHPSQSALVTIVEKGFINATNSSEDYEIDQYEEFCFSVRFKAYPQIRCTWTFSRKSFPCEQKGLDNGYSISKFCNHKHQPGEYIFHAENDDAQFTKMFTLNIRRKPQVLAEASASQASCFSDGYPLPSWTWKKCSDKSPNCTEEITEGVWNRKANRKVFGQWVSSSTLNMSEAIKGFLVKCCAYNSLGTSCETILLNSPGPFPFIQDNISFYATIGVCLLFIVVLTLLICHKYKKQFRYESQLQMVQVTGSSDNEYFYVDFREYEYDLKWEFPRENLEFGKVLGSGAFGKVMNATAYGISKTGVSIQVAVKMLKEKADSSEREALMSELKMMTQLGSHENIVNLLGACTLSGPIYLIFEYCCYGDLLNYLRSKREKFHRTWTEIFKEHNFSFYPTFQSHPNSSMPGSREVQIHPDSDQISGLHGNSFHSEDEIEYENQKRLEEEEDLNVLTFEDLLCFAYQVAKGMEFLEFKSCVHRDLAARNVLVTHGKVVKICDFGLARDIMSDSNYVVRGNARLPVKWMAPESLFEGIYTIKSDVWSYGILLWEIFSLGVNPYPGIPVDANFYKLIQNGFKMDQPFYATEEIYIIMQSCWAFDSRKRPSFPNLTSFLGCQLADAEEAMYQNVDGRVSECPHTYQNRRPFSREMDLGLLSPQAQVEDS
Description: This assay monitors the 33P incorporation into a substrate poly(Glu, Tyr) 4:1 (pE4Y). […] Final substrate concentrations in the assay were 90 μM ATP and 0.5 mg/ml pE4Y (both from Sigma Chemicals, St. Louis, Mo.). […] Reactions were carried out at room temperature.
Two assay solutions were prepared. Solution 1 contains 100 mM HEPES (pH 7.5), 10 mM MgCl2, 25 mM NaCl, 1 mg/ml pE4Y and […] (containing 0.3 mCi of [γ-33^P]ATP for each reaction). Solution 2 contains 100 mM HEPES (pH 7.5), 10 mM MgCl2, 25 mM NaCl, 2 mM DTT, 0.02% BSA and 3 nM FLT-3. The assay was run on a 96 well plate by mixing 50 μl each of Solution 1 and […] of the compounds of the present invention. The reaction was initiated with Solution 2. […] All of the reaction volume was then transferred to a filter plate and washed with 5% TCA by a Harvester 9600 from TOMTEC (Hamden, Conn.). The amount of ^33P incorporation into pE4y was analyzed by a Packard Top Count Microplate Scintillation Counter (Meriden, Conn.). The data was fitted using Prism software to get an IC50 or Ki.

Aurora-2 (Aurora A) = target: T3, Aurora-2 (Aurora A) (Homo sapiens, UniProt O14965); assay: Aurora-2 (Aurora A) inhibition assay, coupled enzyme; assay type: biochemical; settings: read-out: Aurora A kinase Ki value
T3 sequence (O14965 1-403): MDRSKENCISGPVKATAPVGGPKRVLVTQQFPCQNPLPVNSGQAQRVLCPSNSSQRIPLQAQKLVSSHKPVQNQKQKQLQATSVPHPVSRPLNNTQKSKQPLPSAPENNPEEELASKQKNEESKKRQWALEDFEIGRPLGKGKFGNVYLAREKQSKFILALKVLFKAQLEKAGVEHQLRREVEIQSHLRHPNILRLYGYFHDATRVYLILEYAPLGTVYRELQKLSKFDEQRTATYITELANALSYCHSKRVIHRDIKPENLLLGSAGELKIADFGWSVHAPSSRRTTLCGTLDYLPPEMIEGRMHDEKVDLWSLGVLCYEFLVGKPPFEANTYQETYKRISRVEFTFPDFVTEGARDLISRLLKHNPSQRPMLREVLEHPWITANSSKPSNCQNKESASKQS
Description: Assays were carried out in a mixture of 100 mM Hepes (pH7.5), 10 mM MgCl2, 1 mM DTT, 25 mM NaCl, 2.5 mM phosphoenolpyruvate, 300 μM NADH, 30 μg/ml pyruvate kinase and 10 μg/ml lactate dehydrogenase. […] Assays were carried out at 30° C. and in the presence of 40 nM Aurora-2.
The plate was preincubated for 10 minutes at 30° C. and the reaction initiated by addition of 10 μl of Aurora-2. Initial reaction rates were determined with a Molecular Devices SpectraMax Plus plate reader over a 10 minute time course. IC50 and Ki data were calculated from non-linear regression analysis using the Prism software package (GraphPad Prism version 3.0cx for Macintosh, GraphPad Software, San Diego Calif., USA).

Aurora-1 (Aurora B), sequence (Q96GD4 whole entry): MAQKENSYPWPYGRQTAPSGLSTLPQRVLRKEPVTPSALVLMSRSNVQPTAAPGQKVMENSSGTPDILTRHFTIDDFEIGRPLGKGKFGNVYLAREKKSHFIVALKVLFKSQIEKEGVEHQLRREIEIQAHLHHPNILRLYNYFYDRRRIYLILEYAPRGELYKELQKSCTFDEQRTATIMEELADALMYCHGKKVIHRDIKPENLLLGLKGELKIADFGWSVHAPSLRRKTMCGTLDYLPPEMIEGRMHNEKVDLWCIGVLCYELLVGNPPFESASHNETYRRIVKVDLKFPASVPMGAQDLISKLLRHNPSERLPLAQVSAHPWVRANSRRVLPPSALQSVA

Question: With `Cc1cc(Nc2cc(N3CCC3)nc(Sc3ccc(N(C)C(=O)c4c(F)cccc4F)cc3)n2)n[nH]1` [Compound 11] as the compound, how does the pKi (JAK3) read?
Answer: 6.30 to 8.00

Question: And the pKi (Aurora-1 (Aurora B))?
Answer: 5.70 to 7.30

Question: What about the pIC50 (Colo205 cells; incubated for 96 hours) of the same compound?
Answer: 6.00 to 7.30

Question: What about the pKi (FLT-3) of the same compound?
Answer: 6.00 to 6.82

Question: With `Cc1cc(Nc2cc(CN3CCC3)nc(Sc3ccc(NC(=O)c4ccccc4C(F)(F)F)cc3)n2)[nH]n1` [Compound 132] as the compound, how does the pKi (JAK3) read?
Answer: 5.70 to 6.30

Question: What about the pKi (Aurora-1 (Aurora B)) of the same compound?
Answer: 7.30 to 8.00

Question: What about the pIC50 (Colo205 cells; incubated for 72 hours) of the same compound?
Answer: < 6.70

Question: And the pIC50 (Colo205 cells; incubated for 96 hours)?
Answer: 6.00 to 7.30

Question: What about the pKi (FLT-3) of the same compound?
Answer: 6.00 to 6.82

Question: Which results are given for `Cc1cc(Nc2cc(N3CCC3)nc(Sc3ccc(NC(=O)c4ccc(CN5CCC5)cc4)cc3)n2)[nH]n1` [Compound 139]?
Answer: pKi (Aurora-2 (Aurora A)): 6.70 to 8.30; pKi (Aurora-1 (Aurora B)): 5.70 to 7.30; pIC50 (Colo205 cells; incubated for 96 hours): 6.00 to 7.30; pKi (FLT-3; read-out: FLT-3 Ki value): 6.00 to 6.82

Question: How did the pKi (Aurora-2 (Aurora A)) turn out when `Cc1cc(Nc2cc(N3CCC3)nc(Sc3ccc(NC(=O)C4(C(F)(F)F)CC4)cc3)n2)[nH]n1` [Compound 142] was run?
Answer: 8.30 to 9.00

Question: And the pKi (Aurora-1 (Aurora B))?
Answer: ≥ 8.00

Question: And the pIC50 (Colo205 cells; incubated for 72 hours)?
Answer: 6.70 to 7.52

Question: What about the pKi (FLT-3; read-out: FLT-3 Ki value) of the same compound?
Answer: 6.00 to 6.82

Question: What does the source list for `Cc1cc(Nc2cc(N3CC(F)(C4CC4)C3)nc(Sc3ccc4ccn(CC(F)(F)F)c(=O)c4c3)n2)[nH]n1` [Compound 189]?
Answer: pKi (JAK3; read-out: JAK3 Ki value): 6.30 to 8.00; pKi (Aurora-1 (Aurora B)): 5.70 to 7.30; pIC50 (Colo205 cells; incubated for 72 hours): < 6.70; pKi (FLT-3): 6.82 to 7.30

Question: With `Cc1cc(Nc2cc(N3CC(F)(C4CC4)C3)nc(Sc3ccc(NC(=O)[C@H]4CCCN4C(C)C)cc3)n2)[nH]n1` [Compound 193] as the compound, how does the pKi (Aurora-2 (Aurora A)) read?
Answer: 8.30 to 9.00

Question: And the pKi (Aurora-1 (Aurora B))?
Answer: 5.70 to 7.30

Question: What about the pIC50 (Colo205 cells; incubated for 72 hours) of the same compound?
Answer: < 6.70

Question: And the pKi (FLT-3; read-out: FLT-3 Ki value)?
Answer: 6.00 to 6.82

Question: `Cc1cc(Nc2cc(N3CC(N4CCOCC4)C3)nc(Sc3ccc4nc(C(F)(F)F)n(C)c4c3)n2)[nH]n1` [Compound 195] was tested. Which pKi (JAK3) did it give?
Answer: 6.30 to 8.00

Question: What about the pKi (Aurora-1 (Aurora B)) of the same compound?
Answer: ≥ 8.00

Question: And the pIC50 (Colo205 cells; incubated for 72 hours)?
Answer: 6.70 to 7.52

Question: What about the pKi (FLT-3) of the same compound?
Answer: 6.00 to 6.82
